Earlier results as cited in article PMC8400941, “Preclinical Toxicity and Safety of MM-129—First-in-Class BTK/PD-L1 Inhibitor as a Potential Candidate against Colon Cancer” (Pharmaceutics, 2021).

Tests used:
patients = conditions: chemotherapy regimens used in CRC; cited from earlier work
[1] = parameters: method as in PMID 24079553; conditions: cited from earlier work
zebrafish embryos/larvae = conditions: 5 μM; cited from earlier work
BFU-E growth = tested on: BFU-E growth; parameters: method as in PMID 17318617; conditions: multiple administration, 350 mg/kg/day, transient; cited from earlier work

Structure (SMILES): O=c1[nH]cc(F)c(=O)[nH]1 [5-FU, 5-fluorouracil]
- patients with hepatotoxicity (patients): up to 47%

Structure (SMILES): CC[C@H](CO)Nc1nc(NCc2ccc(-c3ccccn3)cc2)c2ncn(C(C)C)c2n1 [CR8]
- elimination half-life [1]: about 3 h

Structure (SMILES): CC[C@H](CO)Nc1nc(NCc2ccccc2)c2ncn(C(C)C)c2n1 [seliciclib]
- embryos with absence of swimming activity, lack of heartbeat and tail blood flow (zebrafish embryos/larvae): 57%
- larvae with curved body (zebrafish embryos/larvae): 50%
- larvae with edema (both mild and severe) (zebrafish embryos/larvae): 82%
- BFU-E growth, of the controls (BFU-E growth): less than 50%
